# Target: human P2X3 receptor (Homo sapiens (Human), UniProt P56373)
# Experiment: Evaluation of human P2X3 receptor inhibitory activity (Test Example 1)
# Format: cell-based
# Settings: C6BU-1 cell transfected with human P2X3 receptor gene, FLIPR 384
# How it was run: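 FLIPR calcium read-out: signal taken as peak fluorescence after ATP addition divided by starting fluorescence, and IC50 calculated from it. Compound added 5 min before 150 nM ATP solution (pre-dispense stock) to Fluo-3-AM-loaded C6BU-1 cells stably transfected with human P2X3; HEPES buffer pH 7.5 with probenecid.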
# Chain of human P2X3 receptor (P56373 whole entry): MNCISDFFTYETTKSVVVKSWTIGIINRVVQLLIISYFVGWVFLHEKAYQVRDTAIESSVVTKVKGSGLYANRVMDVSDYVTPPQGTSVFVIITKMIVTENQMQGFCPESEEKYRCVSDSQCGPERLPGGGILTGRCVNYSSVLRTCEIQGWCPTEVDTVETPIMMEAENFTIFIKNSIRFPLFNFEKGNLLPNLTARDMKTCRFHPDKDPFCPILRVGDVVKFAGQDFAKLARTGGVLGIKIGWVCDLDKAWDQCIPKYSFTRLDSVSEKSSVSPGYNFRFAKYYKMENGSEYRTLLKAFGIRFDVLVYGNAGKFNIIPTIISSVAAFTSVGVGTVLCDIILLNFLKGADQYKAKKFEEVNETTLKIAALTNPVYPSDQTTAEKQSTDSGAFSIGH
row,Compound,IC50
1,CC(C)(Cn1c(=O)[nH]/c(=N\c2ccc(Oc3cncc(F)c3)c(F)c2)n(Cc2ccc(Cl)cc2)c1=O)C(=O)O [Compound R-121],5 nM
2,CC(C)(C)n1c(=O)[nH]/c(=N\c2ccc(Oc3ccc(-c4cccc(C(=O)O)c4)cn3)cc2)n(Cc2ccc(Cl)cc2)c1=O [Compound R-001],7 nM
3,COC(=O)[C@@H](C)Cn1c(=O)[nH]/c(=N\c2ccc(Oc3cnccn3)c(F)c2)n(Cc2ccc(Cl)cc2)c1=O [Compound R-048],6 nM
4,CC(C)(Cn1c(=O)[nH]/c(=N\c2ccc(Oc3cccc(F)n3)cc2)n(Cc2ccc(Cl)cc2)c1=O)C(=O)O [Compound I-010],5 nM
5,COC(=O)[C@@H](C)[C@@H](C)n1c(=O)[nH]/c(=N\c2ccc(Oc3ccccn3)cc2)n(Cc2ccc(Cl)cc2)c1=O [Compound I-151],10 nM
6,Cc1cccnc1Oc1ccc(/N=c2\[nH]c(=O)n(C[C@H](C)C(=O)O)c(=O)n2Cc2ccc(Cl)cc2)cc1 [Compound I-077],10 nM
7,COC(=O)[C@@H](C)Cn1c(=O)[nH]/c(=N\c2ccc(Oc3nc(C)ns3)cc2)n(Cc2ccc(Cl)cc2)c1=O [Compound R-135],5 nM
8,Cc1cc(/N=c2\[nH]c(=O)n(C[C@H](C)C(=O)O)c(=O)n2Cc2ccc(Cl)cc2)ccc1Oc1cncc(F)c1 [Compound R-116],5 nM
9,CC(C)(Cn1c(=O)[nH]/c(=N\c2ccc(Oc3ccnc(Cl)c3)cc2)n(Cc2ccc(Cl)cc2)c1=O)C(=O)O [Compound R-089],7 nM
10,O=c1[nH]/c(=N\c2ccc(Oc3cccc(F)n3)cc2)n(Cc2ccc(Cl)cc2)c(=O)n1CC1(CO)COC1 [Compound I-042],4 nM
11,Cc1cc(/N=c2\[nH]c(=O)n([C@@H](C)[C@@H](C)C(=O)O)c(=O)n2Cc2ccc(Cl)cc2)ccc1Oc1ccccn1 [Compound I-220],10 nM
12,COC(=O)C(C)(C)Cn1c(=O)[nH]/c(=N\c2ccc(N3CCOCC3)c(C)c2)n(Cc2ccc(Cl)cc2)c1=O [Compound R-102],100 nM
13,Cc1ccc(Cn2c(=O)n(C[C@H](C)C(=O)O)c(=O)[nH]/c2=N\c2ccc(Oc3ccnc(F)c3)cc2)cc1 [Compound R-223],7 nM
14,COc1ccc(Oc2ccc(/N=c3\[nH]c(=O)n(CC(C)(C)C(=O)O)c(=O)n3Cc3ccc(Cl)cc3)cc2)nn1 [Compound R-190],9 nM
15,Cc1ccc(Cn2c(=O)n(CC(C)(C)C(=O)O)c(=O)[nH]/c2=N\c2ccc(Oc3cccc(Cl)n3)cc2)cc1 [Compound I-128],8 nM
16,COC(=O)[C@@H](C)Cn1c(=O)[nH]/c(=N\c2ccc(Oc3ncccc3F)cc2)n(Cc2ccc(C)cc2)c1=O [Compound I-052],6 nM
17,C[C@@H](Cn1c(=O)[nH]/c(=N\c2ccc(Oc3ccccn3)cc2)n(C[C@H]2CC[C@H](C)CC2)c1=O)C(=O)O [Compound I-145],6 nM
18,"CCOC(=O)c1cnc(Oc2ccc(/N=c3\[nH]c(=O)n(CC)c(=O)n3Cc3ccc(Cl)cc3)cc2)c(Cl)c1 [Compound R-015, 1-(4-chlorobenzyl)-6-[4-(3-chloro-5-ethoxycarbonyl-2-pyridyloxy)phenylimino]-3-ethyl-1,3,5-triazinane-2,4-dione]",104 nM
19,C[C@@H](Cn1c(=O)[nH]/c(=N\c2ccc(Oc3ncccc3F)cc2)n(Cc2ccc(F)cc2F)c1=O)C(=O)O [Compound I-027],39 nM
20,C[C@@H](Cn1c(=O)[nH]/c(=N\c2ccc(Oc3ccnc(C#N)c3)cc2)n(Cc2ccc(Cl)cc2)c1=O)C(=O)O [Compound R-123],5 nM

row,Compound,IC50
1,C[C@@H](Cn1c(=O)[nH]/c(=N\c2ccc(Oc3ccc(Cl)nn3)cc2)n(Cc2ccc(Cl)cc2)c1=O)C(=O)O [Compound R-197],7 nM
2,Cc1nsc(Oc2ccc(/N=c3\[nH]c(=O)n(C[C@H](C)C(=O)O)c(=O)n3Cc3ccc(Cl)cc3)cc2)n1 [Compound R-160],8 nM
3,CC(C)n1c(=O)[nH]/c(=N\c2ccc(Oc3cccc(C(=O)O)n3)c(Cl)c2)n(Cc2ccc(Cl)cc2)c1=O [Compound R-012],5 nM
4,COC(=O)[C@@H](C)Cn1c(=O)[nH]/c(=N\c2ccc(Oc3ccc(CO)nc3)cc2)n(Cc2ccc(Cl)cc2)c1=O [Compound R-152],5 nM
5,Cc1cccnc1Oc1ccc(/N=c2\[nH]c(=O)n(CC(C)(C)C(=O)O)c(=O)n2Cc2ccc(Cl)cc2)cc1 [Compound I-078],19 nM
6,Cc1cc(/N=c2\[nH]c(=O)n(C[C@H](C)C(=O)O)c(=O)n2Cc2ccc(Cl)cc2)ccc1Oc1ccccn1 [Compound I-212],10 nM
7,O=c1[nH]/c(=N\c2ccc(Oc3ccccn3)cc2)n(Cc2ccc(Cl)cc2)c(=O)n1C[C@@H](O)CO [Compound R-250],9 nM
8,COc1cncc(Oc2ccc(/N=c3\[nH]c(=O)n(C[C@H](C)C(=O)O)c(=O)n3Cc3ccc(Cl)cc3)cc2)c1 [Compound R-201],8 nM
9,Cc1ccc(Cn2c(=O)n(C[C@H](C)C(=O)O)c(=O)[nH]/c2=N\c2ccc(Oc3ccc(C(C)O)cn3)cc2)cc1 (some centres unmarked) [Compound I-262],7 nM
10,COC(=O)[C@H](C)[C@H](C)n1c(=O)[nH]/c(=N\c2ccc(Oc3ccc(OC(F)F)cn3)cc2)n(Cc2ccc(C)cc2)c1=O [Compound I-137],14 nM
11,Cc1ccc(Cn2c(=O)n(CCCC(=O)O)c(=O)[nH]/c2=N\c2ccc(Oc3cccc(F)n3)cc2)cc1 [Compound R-279],7 nM
12,COC(=O)CCn1c(=O)[nH]/c(=N\c2ccc(Oc3ccccn3)c(Cl)c2)n(Cc2ccc(C)cc2)c1=O [Compound R-301],5 nM
13,O=C(O)CCn1c(=O)[nH]/c(=N\c2ccc(Oc3ccccn3)c(F)c2)n(Cc2ccc(Cl)cc2)c1=O [Compound R-281],7 nM
14,COC(=O)[C@H](C)[C@H](C)n1c(=O)[nH]/c(=N\c2ccc(Oc3cc(C#N)ccn3)cc2)n(Cc2ccc(Cl)cc2)c1=O [Compound I-075],21 nM
15,COCc1ccc(Oc2ccc(/N=c3\[nH]c(=O)n(C[C@H](C)C(=O)OC)c(=O)n3Cc3ccc(Cl)cc3)cc2)nc1 [Compound I-247],6 nM
16,CO[C@@H](Cn1c(=O)[nH]/c(=N\c2ccc(Oc3ncccc3F)cc2)n(Cc2ccc(Cl)cc2)c1=O)C(=O)O [Compound I-102],5 nM
17,C[C@@H](Cn1c(=O)[nH]/c(=N\c2ccc(Oc3ccccn3)c(F)c2)n(Cc2ccc(Cl)cc2)c1=O)C(=O)O [Compound I-211],7 nM
18,COC(=O)C(C)(C)Cn1c(=O)[nH]/c(=N\c2ccc(Oc3ncc(C)s3)cc2)n(Cc2ccc(Cl)cc2)c1=O [Compound R-149],12 nM
19,COC(=O)C(C)(C)Cn1c(=O)[nH]/c(=N\c2ccc(Oc3ccc(C)nn3)c(F)c2)n(Cc2ccc(Cl)cc2)c1=O [Compound R-175],19 nM
20,COC(=O)[C@@H](C)Cn1c(=O)[nH]/c(=N\c2ccc(Oc3ccc(C)cn3)cc2)n(Cc2ccc(Cl)cc2)c1=O [Compound I-051],6 nM

row,Compound,IC50
1,COC(=O)C(C)(C)Cn1c(=O)[nH]/c(=N\c2ccc(Oc3cnc(Cl)cn3)cc2)n(Cc2ccc(Cl)cc2)c1=O [Compound R-025],5 nM
2,COC(=O)[C@@H](C)Cn1c(=O)[nH]/c(=N\c2ccc(Oc3cccc(F)n3)cc2)n(CC2CCC3(CC2)CC3)c1=O [Compound I-236],16 nM
3,COC(=O)[C@@H](C)Cn1c(=O)[nH]/c(=N\c2ccc(Oc3cnc(Cl)cn3)cc2)n(Cc2ccc(Cl)cc2)c1=O [Compound R-013],6 nM
4,"CCn1c(=O)[nH]/c(=N\c2ccc(Oc3ncc(C(=O)O)cc3Cl)cc2)n(Cc2ccc(Cl)cc2)c1=O [Compound R-016, 1-(4-chlorobenzyl)-6-[4-(3-chloro-5-hydroxycarbonyl-2-pyridyloxy)phenylimino]-3-ethyl-1,3,5-triazinane-2,4-dione]",6 nM
5,COC(=O)CCn1c(=O)[nH]/c(=N\c2ccc(Oc3ccccn3)c(F)c2)n(Cc2ccc(Cl)cc2)c1=O [Compound R-293],4 nM
6,COC(=O)C(C)(C)Cn1c(=O)[nH]/c(=N\c2ccc(Oc3cncc(OC)c3)cc2)n(Cc2ccc(Cl)cc2)c1=O [Compound R-200],8 nM
7,COCc1ccc(Oc2ccc(/N=c3\[nH]c(=O)n(C[C@H](C)C(=O)O)c(=O)n3Cc3ccc(C)cc3)cc2)nc1 [Compound I-254],6 nM
8,C[C@@H](Cn1c(=O)[nH]/c(=N\c2ccc(Oc3ccc(CF)cn3)cc2)n(Cc2ccc(Cl)cc2)c1=O)C(=O)O [Compound I-232],5 nM
9,CC(=O)c1cccc(Oc2ccc(/N=c3\[nH]c(=O)n(CCC(=O)O)c(=O)n3Cc3ccc(Cl)cc3)cc2)n1 [Compound R-299],20 nM
10,COC(=O)CCn1c(=O)[nH]/c(=N\c2ccc(Oc3ccccn3)c(F)c2)n(Cc2ccc(C)cc2)c1=O [Compound R-292],4 nM
11,COC(=O)C(C)(C)Cn1c(=O)[nH]/c(=N\c2ccc(Oc3ccnc(Cl)c3)cc2)n(Cc2ccc(Cl)cc2)c1=O [Compound R-087],12 nM
12,C[C@@H](Cn1c(=O)[nH]/c(=N\c2ccc(O[C@H](C)C(F)(F)F)c(O[C@H](C)C(F)(F)F)c2)n(Cc2ccc(Cl)cc2)c1=O)C(=O)O [Compound R-094],29 nM
13,CC(C)(Cn1c(=O)[nH]/c(=N\c2ccc(Oc3cnc(C(F)(F)F)cn3)cc2)n(Cc2ccc(Cl)cc2)c1=O)C(=O)O [Compound R-176],7 nM
14,C[C@@H](Cn1c(=O)[nH]/c(=N\c2ccc(Oc3ccc(CF)nc3)cc2)n(Cc2ccc(Cl)cc2)c1=O)C(=O)O [Compound I-233],6 nM
15,Cc1cc(/N=c2\[nH]c(=O)n(C[C@H](C)C(=O)O)c(=O)n2Cc2ccc(Cl)cc2)ccc1O[C@H](C)C(F)(F)F [Compound R-098],80 nM
16,Cc1ccc(Cn2c(=O)n(CCC(=O)O)c(=O)[nH]/c2=N\c2ccc(Oc3ccccn3)c(Cl)c2)cc1 [Compound R-298],9 nM
17,COC(=O)C(C)(C)Cn1c(=O)[nH]/c(=N\c2ccc(Oc3ncccc3C(F)(F)F)cc2)n(Cc2ccc(Cl)cc2)c1=O [Compound I-031],199 nM
18,Cc1ccc(Cn2c(=O)n(C[C@H](C)C(=O)O)c(=O)[nH]/c2=N\c2ccc(Oc3ccc(OC(F)F)cn3)cc2)cc1 [Compound I-135],4 nM
19,O=C(O)Cn1c(=O)[nH]/c(=N\c2ccc(Oc3ccc(Cl)cn3)cc2)n(Cc2ccc(Cl)cc2)c1=O [Compound R-312],350 nM

# Source: patent US10065941B2, “Aminotriazine derivative and pharmaceutical composition comprising the same” (Shionogi & Co., Ltd., priority 2013, dated 2018)
